# Tested on: Low-Grade Glioma (LGG)
# Test: Phase I/II trial of single agent mirdametinib in patients with low-grade glioma
# Format: in vivo, human
# Experimental: Example 1: Phase I/II Evaluation of Single Agent Mirdametinib, a Brain-Penetrant MEK1/2 Inhibitor, for the Treatment of Children, Adolescents, and Young Adults With Low-Grade Glioma (LGG) A multi-arm phase I/II trial of mirdametinib is currently being conducted in patients ≥2 and <25 years with LGG. Phase I requires participants have no prior exposure to MEK inhibitors and recurrent/progressive disease with biopsy-proven evidence of MAPK pathway activation. Three escalating dose levels (2 mg/m^2/dose BID, 2.5 mg/m^2/dose BID and 3 mg/m^2/dose BID) are planned using a rolling 6 design. The median age enrolled in the study is 10 years (3-21 years old). 10 patients have somatic gene rearrangements (7 BRAF, 1 MYB, 1 RAF1, 1 FGFR1); 1 patient has a NF1 germline mutation; and 3 patients have metastatic disease. […] Of the 11 patients having a somatic gene rearrangement or NF1, 4 patients with BRAF and the 1 patient with FGFR1 received a dose of 2 mg/m^2 BID. The remainder of the 11 patients (3 BRAF, 1 MYB, 1 NF1, and 1 RAF1) received a dose of 2.5 mg/m^2 BID.
compound,measurement,setting,value
"O=C(NOC[C@H](O)CO)c1ccc(F)c(F)c1Nc1ccc(I)cc1F (single isomer, unassigned) [mirdametinib]","Minor Response (MR), patients (decrease by 25-50%)",2 mg/m^2 BID (N = 5),4 (80.0%)
same,"Partial Response (PR), patients (decrease in tumor size by 50-75%)","2 mg/m^2 BID (N = 5), patients with somatic gene rearrangement or NF1, as of cut-off date",1 (20.0%)
same,"Minor Response (MR), patients (decrease by 25-50%)",2.5 mg/m^2 BID (N = 6),3 (50.0%)
same,"Stable Disease (SD), patients (stable tumor size or decrease up to 25%)",2.5 mg/m^2 BID (N = 6),3 (50.0%)
same,"Minor Response (MR), patients (decrease by 25-50%)",Total (N = 11),7 (63.6%)
same,"Stable Disease (SD), patients (stable tumor size or decrease up to 25%)",Total (N = 11),3 (27.3%)
same,"Partial Response (PR), patients (decrease in tumor size by 50-75%)","Total (N = 11), 2 and 2.5 mg/m^2 BID pooled",1 (9.1%)
same,dose-limiting toxicities,dose level 1 (2 mg/m^2),No dose-limiting toxicities occurred
same,tolerability,"dosed continuously, recurrent/progressive pediatric LGG",well-tolerated
same,patients with minor response (>25%-<50% decrease),patients who completed at least one follow-up disease evaluation,Four of the six patients
same,MEK related retinopathy or cardiopathy,phase I,No MEK related retinopathy or cardiopathy has been observed
same,disease progressions,phase I,No disease progressions have occurred
same,"treatment-related adverse events, grade","phase I, dose levels 1 and 2",Only grade 1 and 2
